Key:
[1] = target: T1, cyclooxygenase (Oryctolagus cuniculus, UniProt O97554); assay: In vitro effect on arachidonic acid induced aggregation of washed rabbit platelets; type: cell-based; settings: arachidonic acid 0.5 mM, read-out: IC50 (arachidonic acid induced platelet aggregation)
T1 construct: arachidonic acid induced aggregation of washed rabbit platelets; endogenous in cells; host or cells: washed platelets of male New Zealand rabbits
T1 sequence (O97554 31-606): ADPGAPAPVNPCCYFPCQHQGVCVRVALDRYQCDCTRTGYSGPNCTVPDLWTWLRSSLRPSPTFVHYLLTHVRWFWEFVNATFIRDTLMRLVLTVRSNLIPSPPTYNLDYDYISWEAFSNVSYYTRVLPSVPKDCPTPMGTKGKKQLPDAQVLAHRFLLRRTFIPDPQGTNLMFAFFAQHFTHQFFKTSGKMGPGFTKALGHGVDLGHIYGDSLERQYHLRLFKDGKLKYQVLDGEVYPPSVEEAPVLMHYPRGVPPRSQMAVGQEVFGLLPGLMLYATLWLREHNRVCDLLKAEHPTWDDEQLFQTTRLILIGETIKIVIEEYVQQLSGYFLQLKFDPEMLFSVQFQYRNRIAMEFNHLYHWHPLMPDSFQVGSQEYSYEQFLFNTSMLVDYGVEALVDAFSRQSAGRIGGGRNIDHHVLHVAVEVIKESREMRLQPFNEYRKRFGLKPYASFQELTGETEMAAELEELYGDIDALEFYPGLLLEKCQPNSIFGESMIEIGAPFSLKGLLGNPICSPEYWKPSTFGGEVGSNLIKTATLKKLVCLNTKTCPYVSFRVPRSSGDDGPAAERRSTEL
Experimental: This protocol was used to assay the effect of the compounds on the cyclooxygenase. […] Blood was taken from the auricular artery of male New Zealand rabbit (2.5 kg mean body weight) on ACD (citric acid/sodium citrate/dextrose) as anticoagulant. The washed platelets were prepared and then transferred in the cuvet of the aggregometer (Chronolog aggregometer Coultronics).

[2] = target: T2, cyclooxygenase (Mus musculus, UniProt Q05769); assay: In vitro effect on prostaglandin (6 keto PGF1α) production induced by LPS+IFNγ on J774A1 monocyte/macrophage cell line; type: cell-based, murine; settings: LPS+IFNγ, J774A1 culture media
T2 construct: main cyclooxygenase products produced by J774A1 cell line; endogenous in cells
T2 sequence (Q05769 18-604): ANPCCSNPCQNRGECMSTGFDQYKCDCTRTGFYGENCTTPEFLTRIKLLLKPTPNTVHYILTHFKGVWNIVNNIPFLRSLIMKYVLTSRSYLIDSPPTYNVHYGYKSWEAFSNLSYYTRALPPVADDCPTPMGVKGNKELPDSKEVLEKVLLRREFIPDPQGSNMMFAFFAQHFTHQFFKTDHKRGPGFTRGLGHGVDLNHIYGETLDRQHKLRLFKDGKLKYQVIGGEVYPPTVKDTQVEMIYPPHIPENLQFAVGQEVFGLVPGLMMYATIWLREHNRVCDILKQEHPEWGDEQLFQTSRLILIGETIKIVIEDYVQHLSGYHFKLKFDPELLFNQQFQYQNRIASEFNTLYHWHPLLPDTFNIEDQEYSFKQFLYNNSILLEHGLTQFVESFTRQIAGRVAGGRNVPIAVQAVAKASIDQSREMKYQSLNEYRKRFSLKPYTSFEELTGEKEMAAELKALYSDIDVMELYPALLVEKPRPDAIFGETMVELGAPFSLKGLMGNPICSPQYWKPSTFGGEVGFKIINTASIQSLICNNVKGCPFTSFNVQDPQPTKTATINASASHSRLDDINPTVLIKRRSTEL
Experimental: 6-In vitro effect on prostaglandin production induced by LPS+IFNγ on J774A1 monocyte/macrophage cell line:
Levels of one of the main cyclooxygenase products produced by J774A1 cell line (i.e.: 6 keto PGF1α) the stable metabolite of PGI2 were assessed in the culture media by a specific radioimmunoassay (NEN, Kit NEK 025).

[3] = tested on: vascular reactivity to methoxamine; assay: In vivo effect on endotoxin treated pithed rat; settings: dose 150 mg/kg/h; endotoxin 300 μg/kg/h; control 79 ± 9, EDTX 278 ± 34
Experimental: 10-In vivo effect on endotoxin treated pithed rat:
As previously reported, the association of an inhibitor of NO synthase and an inhibitor of cyclooxygenase has a synergistic effect to restore the blood pressure and vascular reactivity in an endotoxinic or septic animal.
Male Sprague Dawley rats (body weight 280-320 g) were pithed. One hour after pithing, animals were given endotoxin (EDTX, Escherichia Coli, lipopolysaccharide, O III, B4 =300 μg/kg/h) for 60 minutes. […]

## CC(=O)Oc1ccccc1C(=O)O [aspirin, acetylsalicylic acid, reference compound]
[1]
  IC50: 200 µM
[2]
  effect on release of 6 keto PGF1α: abolished in a dose dependent manner
[3]
  vascular reactivity to methoxamine DE50: 136 ± 29 µg/kg
